The text below walks through data of US20250064899A1, “USE OF THE 15-LIPOXYGENASE FOR THE TREATMENT OF LYMPHEDEMA” (INSERM (INSTITUT NATIONAL DE LA SANTÉ ET DE LA RECHERCHE …, priority 2022, published 2025).

Each structure is given as a SMILES string. Entries after “also recorded” stand apart in the source; their conditions may differ.

Series [1] has as its system LEC (lymphatic endothelium). As to the kind of experiment: effect of 15-HETE on the cultured LEC. Format: cell-based. An excerpt: To decipher the role of 15-Lox lipid derived mediators, we studied the effect of 15-HETE on the cultured LEC. We identified a direct effect of 15 HETE on the lymphatic endothelium. It promoted Tcells adhesion to the lymphatic monolayer (data not shown), had no effect on LEC proliferation (data not shown), but stimulated their migration (data not shown).

For another series, the system named is lymphatic monolayer. The conditions noted are these: literature reference 17; cited from earlier work.
In the next series the target is T1, 15-LOX (Mus musculus, UniProt P39654).
T1 construct: from tissue; host or cells: living C57BL/6J mice (lymphedematous limb)
T1 sequence (P39654 1-663): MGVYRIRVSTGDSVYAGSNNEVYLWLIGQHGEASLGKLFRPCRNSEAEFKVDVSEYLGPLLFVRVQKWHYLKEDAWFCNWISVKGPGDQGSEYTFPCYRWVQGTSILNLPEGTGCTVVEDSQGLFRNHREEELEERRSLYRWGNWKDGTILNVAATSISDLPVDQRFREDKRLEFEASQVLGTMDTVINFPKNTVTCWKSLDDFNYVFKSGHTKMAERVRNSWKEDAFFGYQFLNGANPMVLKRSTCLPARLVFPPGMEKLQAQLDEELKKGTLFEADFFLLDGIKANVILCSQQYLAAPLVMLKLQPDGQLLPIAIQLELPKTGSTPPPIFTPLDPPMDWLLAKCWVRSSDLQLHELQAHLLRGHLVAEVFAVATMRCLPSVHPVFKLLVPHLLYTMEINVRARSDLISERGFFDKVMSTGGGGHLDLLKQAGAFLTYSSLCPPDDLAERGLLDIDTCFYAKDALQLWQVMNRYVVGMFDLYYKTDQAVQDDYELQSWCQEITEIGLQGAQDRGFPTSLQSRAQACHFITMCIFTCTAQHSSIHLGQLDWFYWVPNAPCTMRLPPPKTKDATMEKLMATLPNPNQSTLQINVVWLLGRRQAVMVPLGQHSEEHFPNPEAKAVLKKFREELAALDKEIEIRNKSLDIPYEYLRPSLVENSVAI
Nature of the series: 15-LOX inhibitor in mouse model of lymphedema. It is filed as in vivo. Particulars: in presence of 15-LOX inhibitor. On the procedure: Mice were housed in individually ventilated cages in a temperature and light regulated room in a SPF facility and received food and water ad libitum. Female C57BL/6J (6 weeks old) were obtained from Janvier (Le Genest Saint Isle, France). Mouse model of lymphedema was performed as previously described (Morfoisse ATVB 2008).
To understand the molecular mechanisms underlying the inflammatory process in lymphedema, we performed a time course analysis of the adipose tissue in a mouse model of lymphedema (not shown). […] In early stages of LD (2 weeks post surgery), no significant difference in lipid content was observed (data not shown). In contrast, in acquired lymphedema (8 weeks post-surgery), we found similar pattern as those observed in human tissue samples (data not shown). In particular, we observed a decrease in AA-derived lipid mediators generated by 15-LOX (15-HETE) whereas no difference was found in lipids generated by DHA metabolism (17-HDOHE) (data not shown). After eight weeks of LD, we observed that changes in pro-resolvin content was associated with a decrease in 15-LOX mRNA and protein expression (data not shown). Importantly, the downregulation of 15-LOX was also observed in the lymphatic endothelium (data not shown).
To evaluate the role of 15-LOX in LD, we used the PD146176 pharmacological inhibitor. […] As we previously shown that Tcell populations were recruited during LD development, we next performed flow cytometry analysis. We observed in the presence of 15-LOX inhibitor an increase in CD4+ Tcells during LD associated with a decrease in Treg recruitment (data not shown). This was confirmed by a decrease of Tregs (Foxp3 positive cells) immunodetection in lymphedematous tissues (data not shown).

As to `CCCCC[C@H](O)/C=C/C=C\C/C=C\C/C=C\CCCC(=O)O` [15-HETE, 15-hydroxyeicosatetraenoic acid], the “deleterious effect / damages on the lymphatic endothelium” value in series [1] (compared to 12-HETE) is recorded as “no deleterious effect; also recorded: did not cause lymphatic damages”. The LEC proliferation result in series [1] (cultured LEC) is recorded as “no effect”.

`CCCCC/C=C\C[C@H](O)/C=C/C=C\C/C=C\CCCC(=O)O` [12-HETE]: the “effect on the lymphatic monolayer” value with lymphatic monolayer is “generates holes in the lymphatic monolayer”.

Regarding `c1ccc2c(c1)SCc1c-2[nH]c2ccccc12` [PD146176], on 15-LOX (flow cytometry), the “CD4+ Tcells during LD” value was “increase” and the Treg recruitment result is on record as “decrease”. The “Tregs (Foxp3 positive cells) immunodetection in lymphedematous tissues” value at 15-LOX is reported as “decrease”. In addition, at 15-LOX (mouse model of lymphedema), the LD swelling entry is reported as “increased”, the dermal backflow result is listed as “strong dermal backflow” and the dermal fibrosis result was “associated with dermal fibrosis”.
